Results reported in ChEMBL document CHEMBL1201862, “PubChem BioAssay data set” (2004).
Blank lines part the entries; values can stand above or below the compound they belong to. Calls of active or inactive are those of the source.

Key:
[1] = biological target: Mu-type opioid receptor (Homo sapiens, UniProt P35372); format: functional, cell-based;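 note: U2OS cells with beta-arrestin recruitment to OPRM1 by beta-gal complementation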
[2] = biological target: 5-hydroxytryptamine receptor 2A (Mus musculus, UniProt P35363); format: functional, cell-based;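 note: CHO-K1 cells with tagged receptor and beta-arrestin; agonist potency measured as compound-induced activation of the receptor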
[3] = biological target: T1, Corticotropin-releasing factor receptor 2/Corticotropin-releasing factor-binding protein (Homo sapiens, UniProt P24387+Q13324); assay: activators of CRF receptor 2 with binding protein – uHTS hits, confirmation (AID 602473); format: functional; settings: read-out: EC50_Mean
T1 sequence (Q13324 whole entry): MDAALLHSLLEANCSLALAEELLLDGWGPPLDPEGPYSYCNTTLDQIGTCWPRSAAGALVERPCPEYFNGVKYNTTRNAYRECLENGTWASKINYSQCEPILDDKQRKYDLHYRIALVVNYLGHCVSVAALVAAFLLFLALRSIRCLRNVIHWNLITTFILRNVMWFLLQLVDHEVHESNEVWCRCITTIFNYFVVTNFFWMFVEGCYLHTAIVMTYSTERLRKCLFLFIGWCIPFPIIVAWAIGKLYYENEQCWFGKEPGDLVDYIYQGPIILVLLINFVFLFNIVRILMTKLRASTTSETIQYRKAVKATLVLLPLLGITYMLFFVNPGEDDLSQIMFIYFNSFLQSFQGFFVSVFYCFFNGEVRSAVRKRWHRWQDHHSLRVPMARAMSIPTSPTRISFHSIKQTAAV
T1 sequence (P24387 whole entry): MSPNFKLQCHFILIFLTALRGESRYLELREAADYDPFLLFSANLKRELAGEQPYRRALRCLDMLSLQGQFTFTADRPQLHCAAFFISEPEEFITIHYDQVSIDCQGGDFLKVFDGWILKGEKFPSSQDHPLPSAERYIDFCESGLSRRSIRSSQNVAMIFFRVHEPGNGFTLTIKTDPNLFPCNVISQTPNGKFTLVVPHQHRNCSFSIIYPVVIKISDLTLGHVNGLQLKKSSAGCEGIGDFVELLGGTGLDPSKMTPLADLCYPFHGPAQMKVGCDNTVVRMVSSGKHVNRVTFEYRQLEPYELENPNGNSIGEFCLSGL

[4] = biological target: T2, Small ubiquitin-related modifier 1 (Homo sapiens, UniProt P63165); assay: SUMO1 protein interaction blockers, potency – biochemical, fluorescence polarization, uHTS hits, dose response (AID 624382); format: functional; settings: read-out: IC50_Mean
[5] = biological target: T2, Small ubiquitin-related modifier 1; assay: SUMO1 protein-protein binding blockers, potency – biochemical, FRET, dose response (AID 624383); format: functional; settings: read-out: IC50_Mean
[6] = biological target: Cytochrome P450 2C19 (Homo sapiens, UniProt P33261); assay: Cytochrome panel assay with activity outcomes. Panel member name: p450-cyp2c19 Compounds with AC50 equal or less than 10 uM are considered active; format: functional; settings: read-out: AC50
[7] = biological target: SWI/SNF-related matrix-associated actin-dependent regulator of chromatin subfamily A member 2 (Homo sapiens, UniProt P51531); assay: Luminescence-based cell-based high throughput dose response assay to identify activators of the function of SWI/SNF related, matrix associated, actin dependent regulator of chromatin, subfamily a, member 2 (SMARCA2, BRM).; format: functional
[8] = Counterscreen for activators of the function of SWI/SNF related, matrix associated, actin dependent regulator of chromatin, subfamily a, member 2 (SMARCA2, BRM): Luminescence-based cell-based high throughput dose response assay to identify non-selective compounds using the VP16 reporter assay.; format: functional
[9] = biological target: T3, Heat shock factor protein 1 (Mus musculus, UniProt P38532); assay: enhancement of HSF1-driven luciferase signal – cell-based, NIH3T3, luminescence, dose retest, confirmation (AID 435004); format: functional;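 note: stress induced by proteasome inhibitor MG132 added 30 min after compound; luciferase reporter driven by HSF1 response element in NIH3T3 cells; actives raise luminescence as potentiators of the MG132 stress response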
T3 sequence (P38532 whole entry): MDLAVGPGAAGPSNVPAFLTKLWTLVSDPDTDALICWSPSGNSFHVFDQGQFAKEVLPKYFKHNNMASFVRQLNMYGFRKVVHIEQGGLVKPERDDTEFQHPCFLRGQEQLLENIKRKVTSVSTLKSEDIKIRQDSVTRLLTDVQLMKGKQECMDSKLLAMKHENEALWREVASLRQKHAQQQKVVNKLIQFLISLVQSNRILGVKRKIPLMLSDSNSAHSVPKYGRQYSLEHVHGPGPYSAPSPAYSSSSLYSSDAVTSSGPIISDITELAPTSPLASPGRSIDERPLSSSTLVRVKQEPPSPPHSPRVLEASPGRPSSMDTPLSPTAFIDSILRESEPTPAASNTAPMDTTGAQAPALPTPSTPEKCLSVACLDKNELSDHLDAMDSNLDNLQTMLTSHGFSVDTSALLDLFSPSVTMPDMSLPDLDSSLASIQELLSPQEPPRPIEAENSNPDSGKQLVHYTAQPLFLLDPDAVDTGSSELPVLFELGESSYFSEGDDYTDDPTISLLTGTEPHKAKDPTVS

[10] = NIH-3T3 fibroblast cytotoxicity, dose response, cytotoxicity control, cell-based, fluorescence, Alamar Blue, secondary assay (AID 2327); format: functional;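 note: NIH-3T3 mouse fibroblasts cultured with fluconazole at 8 µg/mL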
[11] = fluconazole-exposed Candida albicans growth modulators – fluorescence, retest, confirmation (AID 2467); format: functional, cell-based
[12] = biological target: T4, Sentrin-specific protease 1 (Homo sapiens, UniProt Q9P0U3); assay: SENP1 catalytic domain blockers, concentration series – biochemical, kinetic FRET, dose response (AID 651697); format: functional; settings: read-out: IC50_Mean
T4 sequence (Q9P0U3 whole entry): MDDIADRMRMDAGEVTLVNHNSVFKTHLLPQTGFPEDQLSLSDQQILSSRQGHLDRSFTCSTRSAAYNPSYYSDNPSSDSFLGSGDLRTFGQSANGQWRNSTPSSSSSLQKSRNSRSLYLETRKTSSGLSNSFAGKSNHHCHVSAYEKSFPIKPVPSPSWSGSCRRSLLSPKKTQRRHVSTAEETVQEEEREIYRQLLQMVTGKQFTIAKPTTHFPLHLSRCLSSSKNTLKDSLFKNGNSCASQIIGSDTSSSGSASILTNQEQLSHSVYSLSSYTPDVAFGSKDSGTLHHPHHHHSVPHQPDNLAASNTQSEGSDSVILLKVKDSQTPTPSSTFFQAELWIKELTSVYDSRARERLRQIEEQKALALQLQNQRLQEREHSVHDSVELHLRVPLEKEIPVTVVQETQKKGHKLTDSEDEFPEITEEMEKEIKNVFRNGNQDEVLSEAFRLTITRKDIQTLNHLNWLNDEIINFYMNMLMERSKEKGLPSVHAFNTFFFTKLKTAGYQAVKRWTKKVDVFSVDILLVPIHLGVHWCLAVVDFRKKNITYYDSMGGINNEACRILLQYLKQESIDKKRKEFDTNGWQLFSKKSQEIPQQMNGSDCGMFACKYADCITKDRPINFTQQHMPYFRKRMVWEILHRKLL

[13] = biological target: T5, Methionyl-tRNA synthetase, putative (Trypanosoma brucei brucei, UniProt Q38C91); format: functional, Trypanosoma brucei brucei strain 927/4 GUTat10.1
T5 sequence (Q38C91 whole entry): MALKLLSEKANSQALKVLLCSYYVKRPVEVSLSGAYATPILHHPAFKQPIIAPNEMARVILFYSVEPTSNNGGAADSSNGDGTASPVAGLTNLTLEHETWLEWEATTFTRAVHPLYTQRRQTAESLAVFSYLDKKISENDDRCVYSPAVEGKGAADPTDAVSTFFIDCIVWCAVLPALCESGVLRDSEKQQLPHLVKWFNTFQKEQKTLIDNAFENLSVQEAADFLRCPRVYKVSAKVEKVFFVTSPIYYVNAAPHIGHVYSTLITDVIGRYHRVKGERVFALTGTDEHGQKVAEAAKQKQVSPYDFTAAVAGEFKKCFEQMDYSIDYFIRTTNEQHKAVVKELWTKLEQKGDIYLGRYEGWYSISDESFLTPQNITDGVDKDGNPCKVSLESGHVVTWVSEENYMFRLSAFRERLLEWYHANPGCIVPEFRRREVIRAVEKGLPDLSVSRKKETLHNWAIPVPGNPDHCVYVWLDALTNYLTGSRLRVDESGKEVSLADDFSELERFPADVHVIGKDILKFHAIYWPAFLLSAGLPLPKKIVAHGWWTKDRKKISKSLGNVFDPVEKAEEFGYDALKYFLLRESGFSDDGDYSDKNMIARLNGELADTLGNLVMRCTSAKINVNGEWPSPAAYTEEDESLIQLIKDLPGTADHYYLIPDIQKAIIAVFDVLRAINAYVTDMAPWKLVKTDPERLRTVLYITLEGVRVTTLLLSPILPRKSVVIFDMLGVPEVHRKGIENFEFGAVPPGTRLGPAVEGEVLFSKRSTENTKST

[14] = Counterscreen for inhibitors of Trypanosoma brucei methionyl tRNA synthetase (MetRS): Luminescence-based cell-based high throughput dose response assay to identify compounds that are cytotoxic to Jurkat human T lymphocyte cells.; format: functional
[15] = biological target: T5, Methionyl-tRNA synthetase, putative; format: functional, Trypanosoma brucei brucei strain 927/4 GUTat10.1; remark: listed apart in the source
[16] = biological target: T4, Sentrin-specific protease 1; assay: Dose response confirmation of small molecule inhibitors of the catalytic domain of the SUMO protease, SENP1 in a FRET assay.; format: functional; settings: read-out: IC50_Mean
[17] = biological target: T6, Rac GTPase-activating protein 1 (Homo sapiens, UniProt Q9H0H5); assay: blockers of MgcRacGAP-driven Rac1 GTP hydrolysis – biochemical, ADP Hunter fluorescence, primary and confirmatory, confirmation (AID 624330); format: functional
T6 sequence (Q9H0H5 whole entry): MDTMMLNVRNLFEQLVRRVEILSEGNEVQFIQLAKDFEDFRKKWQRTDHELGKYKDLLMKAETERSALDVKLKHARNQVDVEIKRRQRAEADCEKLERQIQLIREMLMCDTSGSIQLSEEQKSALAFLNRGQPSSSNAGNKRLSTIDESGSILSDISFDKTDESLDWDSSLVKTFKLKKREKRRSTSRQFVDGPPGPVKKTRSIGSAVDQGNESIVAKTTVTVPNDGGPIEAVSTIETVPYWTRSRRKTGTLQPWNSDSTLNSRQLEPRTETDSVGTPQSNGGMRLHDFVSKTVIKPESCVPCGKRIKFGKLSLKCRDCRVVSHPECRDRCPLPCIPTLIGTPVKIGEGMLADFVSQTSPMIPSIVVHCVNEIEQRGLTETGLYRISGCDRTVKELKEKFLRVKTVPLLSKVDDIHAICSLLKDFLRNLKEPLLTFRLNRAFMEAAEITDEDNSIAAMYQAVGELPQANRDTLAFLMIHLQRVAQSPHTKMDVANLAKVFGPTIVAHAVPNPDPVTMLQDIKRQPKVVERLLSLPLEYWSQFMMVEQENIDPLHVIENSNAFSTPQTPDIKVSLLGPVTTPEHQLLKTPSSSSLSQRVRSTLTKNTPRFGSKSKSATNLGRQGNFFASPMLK

Chain of 5-hydroxytryptamine receptor 2A (P35363 whole entry): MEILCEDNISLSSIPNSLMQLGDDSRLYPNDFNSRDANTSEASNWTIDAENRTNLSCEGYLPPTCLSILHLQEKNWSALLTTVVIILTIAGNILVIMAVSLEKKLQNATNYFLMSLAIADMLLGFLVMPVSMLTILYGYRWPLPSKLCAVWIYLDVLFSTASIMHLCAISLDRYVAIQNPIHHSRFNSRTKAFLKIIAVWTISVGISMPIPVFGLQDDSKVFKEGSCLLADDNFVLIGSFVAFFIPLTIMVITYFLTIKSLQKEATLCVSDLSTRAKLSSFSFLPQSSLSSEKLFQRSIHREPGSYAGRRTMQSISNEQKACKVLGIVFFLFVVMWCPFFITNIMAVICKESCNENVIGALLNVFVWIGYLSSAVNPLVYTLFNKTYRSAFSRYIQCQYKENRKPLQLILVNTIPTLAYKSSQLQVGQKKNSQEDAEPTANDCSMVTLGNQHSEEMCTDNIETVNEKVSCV
T2 sequence (P63165 whole entry): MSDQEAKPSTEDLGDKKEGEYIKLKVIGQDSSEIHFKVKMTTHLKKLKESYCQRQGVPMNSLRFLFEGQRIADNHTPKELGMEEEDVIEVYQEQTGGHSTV
Chain of Mu-type opioid receptor (P35372 whole entry): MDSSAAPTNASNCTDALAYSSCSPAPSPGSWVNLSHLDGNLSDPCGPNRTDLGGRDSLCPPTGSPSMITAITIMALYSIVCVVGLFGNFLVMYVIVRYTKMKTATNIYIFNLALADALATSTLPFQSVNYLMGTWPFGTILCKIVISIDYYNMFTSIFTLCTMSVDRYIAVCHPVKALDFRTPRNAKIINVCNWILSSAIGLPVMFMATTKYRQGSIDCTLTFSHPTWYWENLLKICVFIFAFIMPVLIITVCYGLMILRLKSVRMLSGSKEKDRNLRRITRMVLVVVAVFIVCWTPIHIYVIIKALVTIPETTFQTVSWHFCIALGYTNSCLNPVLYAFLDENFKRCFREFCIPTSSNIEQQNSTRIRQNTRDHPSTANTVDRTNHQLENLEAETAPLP
Chain of SWI/SNF-related matrix-associated actin-dependent regulator of chromatin subfamily A member 2 (P51531 whole entry): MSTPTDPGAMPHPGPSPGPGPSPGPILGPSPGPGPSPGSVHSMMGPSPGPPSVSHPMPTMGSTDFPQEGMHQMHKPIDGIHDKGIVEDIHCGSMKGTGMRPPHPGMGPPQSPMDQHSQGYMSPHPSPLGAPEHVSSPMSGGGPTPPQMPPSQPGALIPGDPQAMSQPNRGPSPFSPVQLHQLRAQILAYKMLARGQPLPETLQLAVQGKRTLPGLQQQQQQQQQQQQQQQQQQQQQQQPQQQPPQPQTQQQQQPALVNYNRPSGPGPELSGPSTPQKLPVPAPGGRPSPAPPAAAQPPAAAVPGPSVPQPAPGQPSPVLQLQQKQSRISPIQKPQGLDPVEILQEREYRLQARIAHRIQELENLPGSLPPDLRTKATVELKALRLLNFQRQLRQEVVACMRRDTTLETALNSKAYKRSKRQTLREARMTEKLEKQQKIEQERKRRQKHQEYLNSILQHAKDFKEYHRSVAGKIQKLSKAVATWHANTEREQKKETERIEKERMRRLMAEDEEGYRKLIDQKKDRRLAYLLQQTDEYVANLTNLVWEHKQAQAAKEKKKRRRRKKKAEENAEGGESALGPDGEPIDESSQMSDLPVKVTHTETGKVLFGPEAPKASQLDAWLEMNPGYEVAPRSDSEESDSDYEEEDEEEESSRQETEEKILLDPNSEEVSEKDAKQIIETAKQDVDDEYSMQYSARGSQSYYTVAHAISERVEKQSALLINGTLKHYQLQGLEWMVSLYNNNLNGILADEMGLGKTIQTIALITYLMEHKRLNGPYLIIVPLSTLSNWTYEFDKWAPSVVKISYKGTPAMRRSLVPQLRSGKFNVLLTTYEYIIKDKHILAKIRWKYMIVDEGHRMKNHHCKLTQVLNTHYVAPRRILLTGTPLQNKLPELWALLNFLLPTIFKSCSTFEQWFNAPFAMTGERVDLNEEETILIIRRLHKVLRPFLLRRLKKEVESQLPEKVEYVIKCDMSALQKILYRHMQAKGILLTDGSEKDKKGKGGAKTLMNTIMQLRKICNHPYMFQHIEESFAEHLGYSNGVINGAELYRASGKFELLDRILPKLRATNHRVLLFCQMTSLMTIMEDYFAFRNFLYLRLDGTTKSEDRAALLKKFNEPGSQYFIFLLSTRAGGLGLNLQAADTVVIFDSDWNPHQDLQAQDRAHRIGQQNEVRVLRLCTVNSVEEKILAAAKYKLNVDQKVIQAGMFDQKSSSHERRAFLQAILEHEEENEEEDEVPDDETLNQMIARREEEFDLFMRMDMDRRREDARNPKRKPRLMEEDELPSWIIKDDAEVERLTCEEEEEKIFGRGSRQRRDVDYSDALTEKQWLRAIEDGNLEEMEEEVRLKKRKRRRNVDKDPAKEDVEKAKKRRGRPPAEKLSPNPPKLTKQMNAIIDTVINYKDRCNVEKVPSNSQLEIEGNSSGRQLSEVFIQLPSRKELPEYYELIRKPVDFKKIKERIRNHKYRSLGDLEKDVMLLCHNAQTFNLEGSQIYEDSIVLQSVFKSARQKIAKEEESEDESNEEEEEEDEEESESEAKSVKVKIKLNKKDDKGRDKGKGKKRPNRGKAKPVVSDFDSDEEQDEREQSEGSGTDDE
Chain of Cytochrome P450 2C19 (P33261 whole entry): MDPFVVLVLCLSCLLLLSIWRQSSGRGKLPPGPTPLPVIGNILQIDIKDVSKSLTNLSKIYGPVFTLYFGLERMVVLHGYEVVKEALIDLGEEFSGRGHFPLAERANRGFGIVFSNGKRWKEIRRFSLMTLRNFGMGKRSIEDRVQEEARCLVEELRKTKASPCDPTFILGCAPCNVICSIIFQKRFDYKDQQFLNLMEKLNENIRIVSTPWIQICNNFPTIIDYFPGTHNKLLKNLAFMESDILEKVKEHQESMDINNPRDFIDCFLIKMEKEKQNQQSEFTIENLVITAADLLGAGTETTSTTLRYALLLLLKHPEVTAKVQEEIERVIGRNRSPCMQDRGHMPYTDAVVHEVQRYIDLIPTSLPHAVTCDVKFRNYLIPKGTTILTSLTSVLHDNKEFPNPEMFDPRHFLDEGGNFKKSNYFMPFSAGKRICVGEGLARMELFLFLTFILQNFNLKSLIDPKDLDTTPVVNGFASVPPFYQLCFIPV

EC50 [1]: 92.5 µM (inactive)
EC50 [2]: 0.282 µM (active)
Structure (SMILES): Cc1ccsc1CN1CCN(c2ccccn2)CC1

EC50 [9]: > 260 µM (inactive)
EC50 [1]: 92.5 µM (inactive)
EC50 [2]: 76.1 µM (inactive)
Structure (SMILES): CC(CCc1ccccc1)NC(=O)CN1CCc2ccccc2C1 (stereo unspecified)

The remaining lines, values behind:

Structure (SMILES): COC(=O)c1ccc2c(c1)C(=O)/C(=C/c1ccc(O)cc1)O2
EC50 [3]: > 53 µM (inactive)
IC50 [4]: > 66.6 µM (inactive)
IC50 [5]: 7.4 µM (active)

Structure (SMILES): Cc1cccc(NC(=O)c2ccc([N+](=O)[O-])o2)n1
AC50 [6]: 20 µM (inconclusive)
EC50 [7]: > 91.1 µM (inactive)
EC50 [8]: > 91.1 µM (inactive)

Structure (SMILES): CCOc1cc(/C=C2\SC(=S)N(NS(=O)(=O)c3ccccc3)C2=O)ccc1O
EC50 [10]: > 150 µM (inactive)
EC50 [11]: 1.88 µM (active)
IC50 [12]: 3.73 µM (active)
IC50 [13]: 122 µM (inactive)
IC50 [14]: 83.3 µM (inactive)
IC50 [15]: 41.8 µM (inactive)
IC50 [16]: 2.41 µM (active)

Structure (SMILES): COc1cc(/C=C2\SC(=Nc3c(C)n(C)n(-c4ccccc4)c3=O)NC2=O)ccc1O
IC50 [12]: 15.5 µM (active)
IC50 [16]: 11.2 µM (active)
IC50 [17]: 38.7 µM (active)
